Measurements reported in patent US20020151551A1, “Use of growth hormone secretagogues in conjunction with physical exercise cross reference to related application” (priority 2000, published 2002).

What was measured:
[1] = system: serum insulin-like growth factor-1; quadriceps muscle; conditions: canines during remobilization; cited from earlier work
diet-induced catabolism = conditions: orally active; cited from earlier work
[2] = system: exercise-induced growth hormone secretion; experiment: Phase I double-blind, placebo-controlled, multiple dose evaluation: effect on exercise-induced growth hormone secretion (exercise bicycle); type: in vivo, human; conditions: for growth hormone AUC, End of Treatment, Mean: Day 7, calorically restricted obese subjects; for growth hormone AUC, End of Treatment, Mean / growth hormone AUC, Change, Mean: AUC up to 150 minutes post exercise; for growth hormone AUC, Change, Mean: Day 7 versus screening visit
Description: Phase I Double-Blind, Placebo-Controlled, Multiple Dose Evaluation of Test Compound in Calorically Restricted, Obese Men and Women
A total of 48 obese subjects, without significant other medical problems and a negative exercise tolerance test, were recruited for this study and placed on a caloric-restricted diet. Subjects had been randomized to either placebo, 3 mg po tid, 6 mg po tid or 10 mg po qam of the test compound, 2-amino-N-[2-(3a-(R)-benzyl-2-methyl-3-oxo-2,3,3a,4,6,7-hexahydro-pyrazolo[4,3-c]pyridin-5-yl)-1-(R)-benzyloxymethyl-2-oxo-ethyl]-isobutyramide, L-tartrate for a total of seven days.
One of the objectives of this study was to examine the effect of the test compound on exercise-induced growth hormone secretion. The testing was conducted on an exercise bicycle.
One of the efficacy measures of this study was the area under the growth hormone secretory response curve over time (AUC). The above table summarizes the growth hormone AUC values at the screening visit (“Before Treatment”) and at Day 7 (“End of Treatment”) for subjects, who completed exercise at both visits. Also, the AUC values for these subjects were calculated for up to 150 minutes post exercise. The “p-value” in the above table, which is associated with each active treatment group, is derived from comparing each active treatment group with the placebo group, using the two-sample Wilcoxon test.

SMILES | serum insulin-like growth factor-1 levels [1] | size and strength of the quadriceps muscle [1] | diet-induced catabolism (diet-induced catabolism) | growth hormone AUC, End of Treatment, Mean ([2]; 3 mg p.o. tid for seven days) | growth hormone AUC, Change, Mean ([2]; 3 mg p.o. tid for seven days) | growth hormone AUC, End of Treatment, Mean ([2]; 6 mg p.o. tid for seven days) | growth hormone AUC, Change, Mean ([2]; 6 mg p.o. tid for seven days) | growth hormone AUC, End of Treatment, Mean ([2]; 10 mg p.o. qam for seven days) | growth hormone AUC, Change, Mean ([2]; 10 mg p.o. qam for seven days) | effect on exercise-induced growth hormone secretion ([2]; overall finding of the study, versus placebo)
CC(C)(N)C(=O)N[C@H](COCc1ccccc1)C(=O)N1CCC2(CC1)CN(S(C)(=O)=O)c1ccccc12 [MK-677] | elevated levels of serum insulin-like growth factor-1 | increased the size and strength of the quadriceps muscle | reverses diet-induced catabolism |  |  |  |  |  |  | 
CN1N=C2CCN(C(=O)[C@@H](COCc3ccccc3)NC(=O)C(C)(C)N)C[C@@]2(Cc2ccccc2)C1=O.O=C(O)C(O)C(O)C(=O)O [test compound, 2-amino-N-[2-(3a-(R)-benzyl-2-methyl-3-oxo-2,3,3a,4,6,7-hexahydro-pyrazolo[4,3-c]pyridin-5-yl)-1-(R)-benzyloxymethyl-2-oxo-ethyl]-isobutyramide, L-tartrate] |  |  |  | 384 | 298 | 395 | 250 | 927 | 684 | augmented exercise-induced growth hormone secretion
